Experimental data reported in the supplement of paper PMC10307832.

Columns and labels:
Assay in all cases: relative viability (nuclei count vs DMSO), 5 days (fraction); higher = more cells survive
HARA = system: HARA
Method in brief: (§1)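 Cells from lung cancer lines were seeded into 1536-well plates and, one day later, dosed by pin tool. Treatments were either a single drug or a fixed dose of an anchor drug with five library-drug doses (not always all listed) in √10 steps. After 5 days, nuclei were stained in a one-step fixation (final 0.05% Triton X-100, 1% formaldehyde, 1 ug/ml Hoechst) and counted on 4× images, and relative viability is the treated-to-vehicle nuclei ratio, as the median of duplicate plates.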

H3255 = system: H3255
Method in brief: as §1

LC-2-ad = system: LC-2-ad
Method in brief: as §1

PC-3 [JPC-3] = system: PC-3 [JPC-3]
Method in brief: as §1

NCI-H441 = system: NCI-H441
Method in brief: as §1

NCI-H460 = system: NCI-H460
Method in brief: as §1

HCC-15 = system: HCC-15
Method in brief: as §1

NCI-H1437 = system: NCI-H1437
Method in brief: as §1

SK-LU-1 = system: SK-LU-1
Method in brief: as §1

LCLC-97TM1 = system: LCLC-97TM1
Method in brief: as §1

LU99A = system: LU99A
Method in brief: as §1

NCI-H1915 = system: NCI-H1915
Method in brief: as §1

NCI-H661 = system: NCI-H661
Method in brief: as §1

NCI-H2126 = system: NCI-H2126
Method in brief: as §1

EMC-BAC-2 = system: EMC-BAC-2
Method in brief: as §1

ChaGo-K-1 = system: ChaGo-K-1
Method in brief: as §1

NCI-H1792 = system: NCI-H1792
Method in brief: as §1

NCI-H1793 = system: NCI-H1793
Method in brief: as §1

HCC-827 = system: HCC-827
Method in brief: as §1

NCI-H1944 = system: NCI-H1944
Method in brief: as §1

NCI-H322M = system: NCI-H322M
Method in brief: as §1

NCI-H23 = system: NCI-H23
Method in brief: as §1

EKVX = system: EKVX
Method in brief: as §1

O=C(O)CCCCC(CCSCc1ccccc1)SCc1ccccc1 (stereo not drawn) [CPI-613] + CC(=O)Nc1cccc(-n2c(=O)n(C3CC3)c(=O)c3c(Nc4ccc(I)cc4F)n(C)c(=O)c(C)c32)c1 [Trametinib] (partner 0.02 µM)
relative viability (HARA; first compound 5 µM): 0.805
relative viability (HARA; first compound 15.81 µM): 0.57
relative viability (HARA; first compound 50 µM): 0.849
relative viability (HARA; first compound 158.11 µM): 0.362
relative viability (HARA; first compound 500 µM): 0.0485
relative viability (H3255; first compound 5 µM): 0.61
relative viability (H3255; first compound 15.81 µM): 0.6
relative viability (H3255; first compound 50 µM): 0.654
relative viability (H3255; first compound 158.11 µM): 0.62
relative viability (H3255; first compound 500 µM): 0.598
relative viability (LC-2-ad; first compound 5 µM): 0.857
relative viability (LC-2-ad; first compound 15.81 µM): 0.899
relative viability (LC-2-ad; first compound 50 µM): 0.911
relative viability (LC-2-ad; first compound 158.11 µM): 0.695
relative viability (LC-2-ad; first compound 500 µM): 0.0212
relative viability (PC-3 [JPC-3]; first compound 5 µM): 0.659
relative viability (PC-3 [JPC-3]; first compound 50 µM): 0.712
relative viability (PC-3 [JPC-3]; first compound 158.11 µM): 0.321
relative viability (PC-3 [JPC-3]; first compound 500 µM): 0.433
relative viability (NCI-H441; first compound 5 µM): 0.426
relative viability (NCI-H441; first compound 15.81 µM): 0.429
relative viability (NCI-H441; first compound 50 µM): 0.343
relative viability (NCI-H441; first compound 158.11 µM): 0.322
relative viability (NCI-H441; first compound 500 µM): 0.003
relative viability (NCI-H460; first compound 5 µM): 0.128
relative viability (NCI-H460; first compound 15.81 µM): 0.132
relative viability (NCI-H460; first compound 50 µM): 0.116
relative viability (NCI-H460; first compound 158.11 µM): 0.0278
relative viability (NCI-H460; first compound 500 µM): 0.0229
relative viability (HCC-15; first compound 5 µM): 0.387
relative viability (HCC-15; first compound 15.81 µM): 0.363
relative viability (HCC-15; first compound 50 µM): 0.363
relative viability (HCC-15; first compound 158.11 µM): 0.167
relative viability (HCC-15; first compound 500 µM): 0.0261
relative viability (NCI-H1437; first compound 5 µM): 0.49
relative viability (NCI-H1437; first compound 15.81 µM): 0.431
relative viability (NCI-H1437; first compound 50 µM): 0.467
relative viability (NCI-H1437; first compound 158.11 µM): 0.0999
relative viability (NCI-H1437; first compound 500 µM): 0.0568
relative viability (SK-LU-1; first compound 5 µM): 0.452
relative viability (SK-LU-1; first compound 15.81 µM): 0.477
relative viability (SK-LU-1; first compound 50 µM): 0.365
relative viability (SK-LU-1; first compound 158.11 µM): 0.366
relative viability (SK-LU-1; first compound 500 µM): 0.129
relative viability (LCLC-97TM1; first compound 5 µM): 0.202
relative viability (LCLC-97TM1; first compound 15.81 µM): 0.162
relative viability (LCLC-97TM1; first compound 50 µM): 0.153
relative viability (LCLC-97TM1; first compound 158.11 µM): 0.0713
relative viability (LCLC-97TM1; first compound 500 µM): 0.0622
relative viability (LU99A; first compound 5 µM): 0.51
relative viability (LU99A; first compound 15.81 µM): 0.524
relative viability (LU99A; first compound 50 µM): 0.461
relative viability (LU99A; first compound 158.11 µM): 0.338
relative viability (LU99A; first compound 500 µM): 0.357
relative viability (NCI-H1915; first compound 5 µM): 0.292
relative viability (NCI-H1915; first compound 15.81 µM): 0.284
relative viability (NCI-H1915; first compound 50 µM): 0.299
relative viability (NCI-H1915; first compound 158.11 µM): 0.216
relative viability (NCI-H1915; first compound 500 µM): 0.148
relative viability (NCI-H661; first compound 5 µM): 0.528
relative viability (NCI-H661; first compound 15.81 µM): 0.532
relative viability (NCI-H661; first compound 50 µM): 0.541
relative viability (NCI-H661; first compound 158.11 µM): 0.263
relative viability (NCI-H661; first compound 500 µM): 0.133
relative viability (NCI-H2126; first compound 5 µM): 0.528
relative viability (NCI-H2126; first compound 15.81 µM): 0.538
relative viability (NCI-H2126; first compound 50 µM): 0.615
relative viability (NCI-H2126; first compound 158.11 µM): 0.232
relative viability (NCI-H2126; first compound 500 µM): 0.193
relative viability (EMC-BAC-2; first compound 5 µM): 0.928
relative viability (EMC-BAC-2; first compound 15.81 µM): 0.884
relative viability (EMC-BAC-2; first compound 50 µM): 0.906
relative viability (EMC-BAC-2; first compound 158.11 µM): 0.521
relative viability (EMC-BAC-2; first compound 500 µM): 0.639
relative viability (ChaGo-K-1; first compound 5 µM): 0.853
relative viability (ChaGo-K-1; first compound 15.81 µM): 0.876
relative viability (ChaGo-K-1; first compound 50 µM): 0.847
relative viability (ChaGo-K-1; first compound 158.11 µM): 0.29
relative viability (ChaGo-K-1; first compound 500 µM): 0.391
relative viability (NCI-H1792; first compound 5 µM): 0.381
relative viability (NCI-H1792; first compound 15.81 µM): 0.372
relative viability (NCI-H1792; first compound 50 µM): 0.355
relative viability (NCI-H1792; first compound 158.11 µM): 0.291
relative viability (NCI-H1792; first compound 500 µM): 0.0761
relative viability (NCI-H1793; first compound 5 µM): 0.429
relative viability (NCI-H1793; first compound 15.81 µM): 0.413
relative viability (NCI-H1793; first compound 50 µM): 0.405
relative viability (NCI-H1793; first compound 158.11 µM): 0.225
relative viability (NCI-H1793; first compound 500 µM): 0.0839
relative viability (HCC-827; first compound 5 µM): 0.518
relative viability (HCC-827; first compound 15.81 µM): 0.555
relative viability (HCC-827; first compound 50 µM): 0.571
relative viability (HCC-827; first compound 158.11 µM): 0.518
relative viability (HCC-827; first compound 500 µM): 0.483
relative viability (NCI-H1944; first compound 5 µM): 0.427
relative viability (NCI-H1944; first compound 15.81 µM): 0.398
relative viability (NCI-H1944; first compound 50 µM): 0.412
relative viability (NCI-H1944; first compound 158.11 µM): 0.259
relative viability (NCI-H1944; first compound 500 µM): 0.28
relative viability (NCI-H322M; first compound 5 µM): 0.427
relative viability (NCI-H322M; first compound 15.81 µM): 0.485
relative viability (NCI-H322M; first compound 50 µM): 0.454
relative viability (NCI-H322M; first compound 158.11 µM): 0.516
relative viability (NCI-H322M; first compound 500 µM): 0.514
relative viability (NCI-H23; first compound 5 µM): 0.394
relative viability (NCI-H23; first compound 15.81 µM): 0.25
relative viability (NCI-H23; first compound 50 µM): 0.393
relative viability (NCI-H23; first compound 158.11 µM): 0.11
relative viability (NCI-H23; first compound 500 µM): 0.0106
relative viability (EKVX; first compound 5 µM): 0.287
relative viability (EKVX; first compound 15.81 µM): 0.272
relative viability (EKVX; first compound 50 µM): 0.343
relative viability (EKVX; first compound 500 µM): 0.325
